Test results as given in patent US11407767B2, “Heterocyclyl substituted pyrrolopyridines that are inhibitors of the CDK12 kinase” (The University of Nottingham, priority 2017, dated 2022).
Counter-ions that a name gives are not always drawn.

What was measured:
DM1 fibroblasts = test: Nuclear foci assay; assay type: cell-based; settings: Fibroblast; DM1 fibroblasts treated for 24 hours, 11 point dilution 20 μM-19 nM, in situ hybridisation with cy3 labelled CAG10 probe
Experimental: DM1 fibroblasts were treated with compounds in an 11 point dilution series from 20 μM-19 nM for 24 hours. Following treatment, fluorescent in situ hybridisation was performed with a cy3 labelled CAG10 probe, to visualize nuclear foci and cells were analysed on a Molecular Devices plate reader with customised MetaExpress software (Ketley, A. et al. (2014). Hum Mol Genet, 23: 1551-1562). Compounds that reduced nuclear foci in a concentration dependent manner, compared to DMSO treated cells were identified.

CDK12/CycK = CDK12/CycK (Homo sapiens, UniProt Q9NYV4); test: Inhibition of CDK12 (ADP-Glo kinase assay); assay type: biochemical; settings: 60 nM CDK12/CycK, 30 minutes pre-incubation, 1 μM ATP, 0.5 μM RBER-IRStide substrate, 1 h at 25° C., read-out: CDK12/cyclin K IC50
CDK12/CycK, sequence (Q9NYV4 whole entry): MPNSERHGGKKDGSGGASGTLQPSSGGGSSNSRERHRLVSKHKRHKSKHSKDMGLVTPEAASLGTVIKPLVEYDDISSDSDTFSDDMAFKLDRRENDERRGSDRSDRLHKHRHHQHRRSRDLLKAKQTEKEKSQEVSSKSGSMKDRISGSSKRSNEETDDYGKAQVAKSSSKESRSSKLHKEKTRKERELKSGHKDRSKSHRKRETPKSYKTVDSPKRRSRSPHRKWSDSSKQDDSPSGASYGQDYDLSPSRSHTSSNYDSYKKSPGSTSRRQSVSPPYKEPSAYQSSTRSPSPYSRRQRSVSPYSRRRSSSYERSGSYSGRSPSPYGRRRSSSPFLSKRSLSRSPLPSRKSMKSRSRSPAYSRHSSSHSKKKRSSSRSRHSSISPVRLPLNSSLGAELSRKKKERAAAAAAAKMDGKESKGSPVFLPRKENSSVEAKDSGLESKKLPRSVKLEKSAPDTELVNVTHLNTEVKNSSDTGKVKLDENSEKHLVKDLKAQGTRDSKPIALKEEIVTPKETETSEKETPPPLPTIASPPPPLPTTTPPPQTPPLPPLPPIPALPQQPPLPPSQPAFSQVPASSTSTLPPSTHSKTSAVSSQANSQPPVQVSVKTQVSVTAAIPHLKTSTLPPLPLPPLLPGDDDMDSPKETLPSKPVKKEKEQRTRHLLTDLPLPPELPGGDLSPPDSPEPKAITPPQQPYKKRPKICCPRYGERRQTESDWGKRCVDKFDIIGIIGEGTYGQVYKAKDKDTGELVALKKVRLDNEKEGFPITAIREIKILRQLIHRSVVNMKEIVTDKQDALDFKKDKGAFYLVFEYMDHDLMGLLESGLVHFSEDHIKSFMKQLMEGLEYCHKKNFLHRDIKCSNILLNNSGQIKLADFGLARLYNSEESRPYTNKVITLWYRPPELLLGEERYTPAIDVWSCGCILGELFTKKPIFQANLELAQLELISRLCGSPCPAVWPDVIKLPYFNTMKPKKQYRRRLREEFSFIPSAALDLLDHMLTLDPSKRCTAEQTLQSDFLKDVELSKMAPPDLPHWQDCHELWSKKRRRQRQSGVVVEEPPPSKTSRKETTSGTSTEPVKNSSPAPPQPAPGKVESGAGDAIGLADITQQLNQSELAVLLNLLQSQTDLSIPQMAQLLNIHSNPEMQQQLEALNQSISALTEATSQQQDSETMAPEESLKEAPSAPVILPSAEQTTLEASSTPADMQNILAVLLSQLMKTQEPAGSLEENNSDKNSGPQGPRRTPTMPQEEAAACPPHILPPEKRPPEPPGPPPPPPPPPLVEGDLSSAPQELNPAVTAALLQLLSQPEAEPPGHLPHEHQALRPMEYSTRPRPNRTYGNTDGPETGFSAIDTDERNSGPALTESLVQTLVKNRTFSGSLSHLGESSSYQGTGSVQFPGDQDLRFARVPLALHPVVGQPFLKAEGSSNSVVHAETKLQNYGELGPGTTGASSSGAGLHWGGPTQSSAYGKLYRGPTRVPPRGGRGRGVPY
CDK12/CycK, sequence (O75909 whole entry partner): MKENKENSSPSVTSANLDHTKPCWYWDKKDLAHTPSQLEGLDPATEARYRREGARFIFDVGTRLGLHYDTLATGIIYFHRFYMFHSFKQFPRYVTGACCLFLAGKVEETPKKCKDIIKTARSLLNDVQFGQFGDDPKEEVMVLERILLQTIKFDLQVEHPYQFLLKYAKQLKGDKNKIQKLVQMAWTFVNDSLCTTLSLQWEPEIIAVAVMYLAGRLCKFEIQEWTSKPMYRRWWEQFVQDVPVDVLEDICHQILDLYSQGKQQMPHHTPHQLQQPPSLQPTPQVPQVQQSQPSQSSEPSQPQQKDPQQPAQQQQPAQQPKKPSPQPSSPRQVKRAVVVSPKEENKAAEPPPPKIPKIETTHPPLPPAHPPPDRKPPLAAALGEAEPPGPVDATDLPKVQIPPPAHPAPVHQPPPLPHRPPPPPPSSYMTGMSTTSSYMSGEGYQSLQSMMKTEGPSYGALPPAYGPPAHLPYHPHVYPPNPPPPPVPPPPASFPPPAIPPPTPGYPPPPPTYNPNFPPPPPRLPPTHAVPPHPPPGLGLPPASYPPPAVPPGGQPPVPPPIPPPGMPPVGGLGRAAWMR
How it was run: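 ADP-Glo luminescence read after a 1 h, 25 °C reaction with 1 μM ATP and 0.5 μM RBER-IRStide peptide. Enzyme (60 nM) and compound were first pre-incubated 30 min; buffer 50 mM HEPES pH 7.5, 20 mM MgCl2, 3 mM MnCl2, 1% DMSO. IC50 fitted after blank subtraction.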

| IC50 (CDK12/CycK) | Compound | IC50 (DM1 fibroblasts) |
| --- | --- | --- |
| 1000 to 30000 nM | c1cc(-c2ccc3[nH]nnc3c2)c2cc[nH]c2n1 [Example 21, 5-(1H-Pyrrolo[2,3-b]pyridin-4-yl)-1H-benzo[d][1,2,3]triazole] | 10000 to 100000 nM |
| < 100 nM | CN(C)C/C=C/C(=O)Nc1ccc(C(=O)N2CCC(c3cc4c(-c5cnn6ncccc56)ccnc4[nH]3)C2)cc1 (centres unmarked) [Example 127, (E)-4-(Dimethylamino)-N-(4-(3-(4-(pyrazolo[1,5-b]pyridazin-3-yl)-1H-pyrrolo[2,3-b]pyridin-2-yl)pyrrolidine-1-carbonyl)phenyl)but-2-enamide Formate Salt] | < 1000 nM |
| 100 to 1000 nM | CN(C)C/C=C/C(=O)Nc1cccc(C(=O)NCCc2cc3c(-c4cnn5ncccc45)ccnc3[nH]2)c1 [Example 200, (E)-3-(4-(Dimethylamino)but-2-enamido)-N-(2-(4-(pyrazolo[1,5-b]pyridazin-3-yl)-1H-pyrrolo[2,3-b]pyridin-2-yl)ethyl)benzamide] | 10000 to 100000 nM |
| 100 to 1000 nM | CNC(=O)c1cc2c(-c3cnn4ncccc34)ccnc2[nH]1 [Example 7, N-Methyl-4-(pyrazolo[1,5-b]pyridazin-3-yl)-1H-pyrrolo[2,3-b]pyridine-2-carboxamide] | 1000 to 10000 nM |
| 100 to 1000 nM | N#CN1CCC[C@H](C(=O)NCCc2cc3c(-c4cnn5ncccc45)ccnc3[nH]2)C1 [Example 210, (S)-1-cyano-N-(2-(4-(pyrazolo[1,5-b]pyridazin-3-yl)-1H-pyrrolo[2,3-b]pyridin-2-yl)ethyl)piperidine-3-carboxamide] | 1000 to 10000 nM |
| 100 to 1000 nM | CN(C)C/C=C/C(=O)N1CCC[C@@H](C(=O)N2CCC(c3cc4c(-c5cnn6ncccc56)ccnc4[nH]3)C2)C1 (stereo partly drawn) [Example 72, (E)-4-(Dimethylamino)-1-((3R)-3-(3-(4-(pyrazolo[1,5-b]pyridazin-3-yl)-1H-pyrrolo[2,3-b]pyridin-2-yl)pyrrolidine-1-carbonyl)piperidin-1-yl)but-2-en-1-one] | 1000 to 10000 nM |
| < 100 nM | C=CC(=O)N1CCCC[C@H]1C(=O)NCCc1cc2c(-c3cnn4ncccc34)ccnc2[nH]1 [Example 92, (S)-1-Acryloyl-N-(2-(4-(pyrazolo[1,5-b]pyridazin-3-yl)-1H-pyrrolo[2,3-b]pyridin-2-yl)ethyl)piperidine-2-carboxamide] | 1000 to 10000 nM |
| < 100 nM | C=CC(=O)Nc1ccc(C(=O)N2CCC(c3cc4c(-c5c[nH]c6ccccc56)ccnc4[nH]3)C2)cc1 (centres unmarked) [Example 129, N-(4-(3-(4-(1H-Indol-3-yl)-1H-pyrrolo[2,3-b]pyridin-2-yl)pyrrolidine-1-carbonyl)phenyl)acrylamide] | 1000 to 10000 nM |
| < 100 nM | C=CC(=O)N1CCC[C@H](C(=O)NCCc2cc3c(-c4cnn5ncccc45)ccnc3[nH]2)C1 [Example 35, (S)-1-acryloyl-N-(2-(4-(pyrazolo[1,5-b]pyridazin-3-yl)-1H-pyrrolo[2,3-b]pyridin-2-yl)ethyl)piperidine-3-carboxamide] | < 1000 nM |
| 100 to 1000 nM | c1cc(-c2ccc3cn[nH]c3c2)c2cc[nH]c2n1 [Example 20, 6-(1H-Pyrrolo[2,3-b]pyridin-4-yl)-1H-indazole] | 10000 to 100000 nM |
| 100 to 1000 nM | CN(C)C/C=C/C(=O)N1CC[C@@H](OCC(=O)N2CCC(c3cc4c(-c5cnn6ncccc56)ccnc4[nH]3)C2)C1 (stereo partly drawn) [Example 71, (E)-4-(Dimethylamino)-1-((3R)-3-(2-oxo-2-(3-(4-(pyrazolo[1,5-b]pyridazin-3-yl)-1H-pyrrolo[2,3-b]pyridin-2-yl)pyrrolidin-1-yl)ethoxy)pyrrolidin-1-yl)but-2-en-1-one] | 1000 to 10000 nM |
| < 100 nM | O=C(CCl)Nc1ccc(C(=O)N2CCC(c3cc4c(-c5cnn6ncccc56)ccnc4[nH]3)C2)cc1 (centres unmarked) [Example 144, 2-Chloro-N-(4-(3-(4-(pyrazolo[1,5-b]pyridazin-3-yl)-1H-pyrrolo[2,3-b]pyridin-2-yl)pyrrolidine-1-carbonyl)phenyl)acetamide] | < 1000 nM |
| 1000 to 30000 nM | C/C=C/C(=O)N1CCC[C@H]1C(=O)NCCc1cc2c(-c3cnn4ncccc34)ccnc2[nH]1 [Example 44, (S,E)-1-(But-2-enoyl)-N-(2-(4-(pyrazolo[1,5-b]pyridazin-3-yl)-1H-pyrrolo[2,3-b]pyridin-2-yl)ethyl)pyrrolidine-2-carboxamide] | 1000 to 10000 nM |
| 100 to 1000 nM | C=CC(=O)N1CCC[C@H]1C(=O)NCCc1cc2c(-c3cnn(C)c3)ccnc2[nH]1 [Example 94, (S)-1-Acryloyl-N-(2-(4-(1-methyl-1H-pyrazol-4-yl)-1H-pyrrolo[2,3-b]pyridin-2-yl)ethyl)pyrrolidine-2-carboxamide] | 10000 to 100000 nM |
| 100 to 1000 nM | Cc1cc2c(-c3cnn4ncccc34)ccnc2[nH]1 [Example 27, 3-(2-Methyl-1H-pyrrolo[2,3-b]pyridin-4-yl)pyrazolo[1,5-b]pyridazine] | < 1000 nM |
| < 100 nM | C=CC(=O)N1CCC[C@H]1C(=O)NCCc1cc2c(-c3cnn4ncccc34)ccnc2[nH]1 [Example 32, (S)-1-Acryloyl-N-(2-(4-(pyrazolo[1,5-b]pyridazin-3-yl)-1H-pyrrolo[2,3-b]pyridin-2-yl)ethyl)pyrrolidine-2-carboxamide] | < 1000 nM |
| 100 to 1000 nM | C=CC(=O)NC(C)C(=O)NCCc1cc2c(-c3cnn4ncccc34)ccnc2[nH]1 (centres unmarked) [Example 212, N-(1-oxo-1-((2-(4-(pyrazolo[1,5-b]pyridazin-3-yl)-1H-pyrrolo[2,3-b]pyridin-2-yl)ethyl)amino)propan-2-yl)acrylamide] | 1000 to 10000 nM |
| 1000 to 30000 nM | C=C(C)C(=O)N1CCC[C@H]1C(=O)NCCc1cc2c(-c3cnn4ncccc34)ccnc2[nH]1 [Example 43, (S)-1-Methacryloyl-N-(2-(4-(pyrazolo[1,5-b]pyridazin-3-yl)-1H-pyrrolo[2,3-b]pyridin-2-yl)ethyl)pyrrolidine-2-carboxamide] | 10000 to 100000 nM |
| < 100 nM | C=CC(=O)N1CC2(CC2)C[C@H]1C(=O)NCCc1cc2c(-c3cnn4ncccc34)ccnc2[nH]1 [Example 208, (S)-5-Acryloyl-N-(2-(4-(pyrazolo[1,5-b]pyridazin-3-yl)-1H-pyrrolo[2,3-b]pyridin-2-yl)ethyl)-5-azaspiro[2.4]heptane-6-carboxamide] | 1000 to 10000 nM |
| 1000 to 30000 nM | CCC(=O)N1CCC[C@H]1C(=O)NCCc1cc2c(-c3cnn4ncccc34)ccnc2[nH]1 [Example 73, (S)-1-Propionyl-N-(2-(4-(pyrazolo[1,5-b]pyridazin-3-yl)-1H-pyrrolo[2,3-b]pyridin-2-yl)ethyl)pyrrolidine-2-carboxamide] | 10000 to 100000 nM |
| < 100 nM | C#CC(=O)Nc1cccc(C(=O)N2CCC(c3cc4c(-c5cnn6ncccc56)ccnc4[nH]3)C2)c1 (centres unmarked) [Example 146, N-(3-(3-(4-(Pyrazolo[1,5-b]pyridazin-3-yl)-1H-pyrrolo[2,3-b]pyridin-2-yl)pyrrolidine-1-carbonyl)phenyl)propiolamide] | < 1000 nM |
| < 100 nM | C=CC(=O)N1CCC[C@@H](C(=O)NCCc2cc3c(-c4cnn5ncccc45)ccnc3[nH]2)C1 [Example 34, (R)-1-Acryloyl-N-(2-(4-(pyrazolo[1,5-b]pyridazin-3-yl)-1H-pyrrolo[2,3-b]pyridin-2-yl)ethyl)piperidine-3-carboxamide] | 1000 to 10000 nM |
